Results reported in ChEMBL document CHEMBL4425117 (Bioorg Med Chem Lett, 2016).

Legend:
[1] = target: T1, Endothelin receptor type B (Sus scrofa, UniProt P35463); test: Displacement of 125I-ET1 from pig ETB receptor transfected in grivet COS7 cells; assay type: cell-based
T1 sequence (P35463 whole entry): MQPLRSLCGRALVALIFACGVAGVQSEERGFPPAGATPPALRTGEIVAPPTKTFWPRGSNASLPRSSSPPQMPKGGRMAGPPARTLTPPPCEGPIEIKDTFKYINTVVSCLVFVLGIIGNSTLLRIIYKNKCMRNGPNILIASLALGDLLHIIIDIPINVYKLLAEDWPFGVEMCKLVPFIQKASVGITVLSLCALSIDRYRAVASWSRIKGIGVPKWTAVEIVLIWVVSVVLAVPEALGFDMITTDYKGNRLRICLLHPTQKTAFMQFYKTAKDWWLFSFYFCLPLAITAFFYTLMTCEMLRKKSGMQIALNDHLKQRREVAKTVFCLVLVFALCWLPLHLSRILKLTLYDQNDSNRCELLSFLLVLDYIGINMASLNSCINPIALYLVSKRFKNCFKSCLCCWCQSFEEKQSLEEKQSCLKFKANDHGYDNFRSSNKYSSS

Endothelin-1 receptor [2] = target: T2, Endothelin-1 receptor (Homo sapiens, UniProt P25101); test: Displacement of radioligand from ETA receptor (unknown origin) expressed in fall armyworm sf9 cell membranes
T2 sequence (P25101 whole entry): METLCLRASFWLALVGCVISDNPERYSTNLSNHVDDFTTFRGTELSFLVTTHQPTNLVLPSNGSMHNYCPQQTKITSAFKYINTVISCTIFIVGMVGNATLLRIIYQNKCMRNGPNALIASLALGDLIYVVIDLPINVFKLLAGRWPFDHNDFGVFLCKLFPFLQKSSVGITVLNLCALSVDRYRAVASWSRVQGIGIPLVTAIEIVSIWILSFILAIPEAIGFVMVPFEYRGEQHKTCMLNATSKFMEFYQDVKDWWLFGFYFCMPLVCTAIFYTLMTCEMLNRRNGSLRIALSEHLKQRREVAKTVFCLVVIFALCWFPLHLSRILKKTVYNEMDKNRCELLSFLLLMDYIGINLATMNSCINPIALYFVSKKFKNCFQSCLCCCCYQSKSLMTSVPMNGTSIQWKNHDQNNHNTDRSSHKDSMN

[3] = target: T3, Endothelin receptor type B (Homo sapiens, UniProt P24530); test: Antagonist activity at human ETB receptor expressed in CHO cells in presence of ET1; assay type: cell-based
T3 sequence (P24530 whole entry): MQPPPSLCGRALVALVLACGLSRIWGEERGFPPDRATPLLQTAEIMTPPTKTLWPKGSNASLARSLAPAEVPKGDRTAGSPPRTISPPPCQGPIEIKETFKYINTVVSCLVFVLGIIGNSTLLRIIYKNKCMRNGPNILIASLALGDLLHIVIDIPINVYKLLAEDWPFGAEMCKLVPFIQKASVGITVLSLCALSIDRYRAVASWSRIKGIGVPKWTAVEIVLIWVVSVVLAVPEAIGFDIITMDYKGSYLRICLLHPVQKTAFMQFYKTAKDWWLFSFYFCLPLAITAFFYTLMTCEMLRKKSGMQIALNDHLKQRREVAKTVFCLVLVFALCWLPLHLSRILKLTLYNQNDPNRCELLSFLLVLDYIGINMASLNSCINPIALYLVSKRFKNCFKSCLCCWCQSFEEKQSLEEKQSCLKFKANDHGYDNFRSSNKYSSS

Endothelin-1 receptor [4] = target: T2, Endothelin-1 receptor; test: Antagonist activity at ETA receptor (unknown origin)
Endothelin-1 receptor [5] = target: T2, Endothelin-1 receptor; test: Displacement of [125I]-ET-1 from human ETA receptor expressed in CHO cell membranes after 2 hrs by scintillation counting
[6] = target: T3, Endothelin receptor type B; test: Displacement of [125I]-ET-1 from human ETB receptor expressed in CHO cell membranes after 2 hrs by scintillation counting
Endothelin-1 receptor [7] = target: T2, Endothelin-1 receptor; test: Displacement of 125I-ET1 from human placenta cell membrane ETA receptor expressed in Baculovirus-infected insect cells
Endothelin-1 receptor [8] = target: T4, Endothelin-1 receptor (Rattus norvegicus, UniProt P26684); test: Antagonist activity at rat aortic ring ETA receptor in presence of ET1; details: read-out: pA2 (converted)
T4 sequence (P26684 whole entry): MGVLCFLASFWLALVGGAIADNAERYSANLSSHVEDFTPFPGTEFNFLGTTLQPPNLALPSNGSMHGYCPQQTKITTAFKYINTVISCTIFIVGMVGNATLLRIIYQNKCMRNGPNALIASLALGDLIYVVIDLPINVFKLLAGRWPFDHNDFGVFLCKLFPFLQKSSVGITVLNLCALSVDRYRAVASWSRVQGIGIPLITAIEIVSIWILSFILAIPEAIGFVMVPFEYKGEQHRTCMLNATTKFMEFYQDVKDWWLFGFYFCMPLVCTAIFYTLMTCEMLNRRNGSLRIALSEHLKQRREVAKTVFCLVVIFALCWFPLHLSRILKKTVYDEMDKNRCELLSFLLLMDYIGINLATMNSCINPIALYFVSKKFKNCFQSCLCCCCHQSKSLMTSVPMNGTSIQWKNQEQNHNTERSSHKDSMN

Endothelin-1 receptor [9] = target: T4, Endothelin-1 receptor; test: Displacement of 125I-ET1 from ETA receptor in rat A7R5 cells; assay type: cell-based
[10] = target: T3, Endothelin receptor type B; test: Displacement of radioligand from ETB receptor in human placenta cell membranes
Endothelin-1 receptor [11] = target: T2, Endothelin-1 receptor; test: Displacement of 125I-ET1 from ETA receptor (unknown origin) expressed in CHO cells; assay type: cell-based

SMILES	IC50 (Endothelin-1 receptor [5]) [nM]	IC50 [6] [nM]	further results
Cc1ccc(-c2c(NS(=O)(=O)c3ccc(C(C)(C)CO)cc3)ncnc2OCCOc2ncc(Br)cn2)cc1			IC50 [1]: 41 nM
COc1ccc(-c2nc(NS(=O)(=O)c3ccc(C(C)(C)C)cc3)c(Oc3ccccc3OC)c(OC[C@H](O)CO)n2)cc1			IC50 (Endothelin-1 receptor [2]): 6800 nM; IC50 [3]: 69 nM
COc1ccccc1Oc1c(NS(=O)(=O)CCc2ccccc2)nc(-c2ncccn2)nc1OCCO			IC50 (Endothelin-1 receptor [4]): 25 nM
COc1cc(OC)nc(O[C@H](C(=O)O)C(OC)(c2ccccc2)c2ccccc2)n1			Ki (Endothelin-1 receptor [5]): 6 nM; Ki [6]: 371 nM
Cc1ccc(C2=C(C(=O)O)C(c3ccc4c(c3)OCO4)Oc3ccc(OC(C)C)cc32)s1 (stereo not given)	1	1800	
Cc1ccc(-c2c(NS(=O)(=O)c3ccc(C(C)(C)C)cc3)ncnc2OCCO)cc1			IC50 (Endothelin-1 receptor [7]): 1000 nM
CC(C)(C)c1ccc(S(=O)(=O)Nc2nc(-c3ncccn3)nc(OCCO)c2Oc2ccccc2O)cc1			IC50 (Endothelin-1 receptor [2]): 26000 nM
Cc1ccc(=O)n([C@@H](C(=O)NS(=O)(=O)c2ccc(C(C)C)cc2)c2ccc3c(c2)OCO3)n1	29	3.5	
COc1ccccc1Oc1c(NS(=O)(=O)c2ccc(C(C)(C)C)cc2)nc(-c2ccccc2)nc1OCCO			IC50 (Endothelin-1 receptor [2]): 800 nM; Kb (Endothelin-1 receptor [8]): 126 nM
COc1cccc(Oc2c(NS(=O)(=O)c3ccc(SC)cc3)cc(C(=O)Nc3ccccc3)cc2OCCO)c1			IC50 (Endothelin-1 receptor [7]): > 100000 nM
COCCOc1nc(-c2ncccn2)nc(NS(=O)(=O)CCc2ccccc2)c1Oc1ccccc1OC			IC50 (Endothelin-1 receptor [9]): 3.6 nM
COc1ccc(Cl)c(Oc2c(NS(=O)(=O)c3ccc(C(C)(C)C)cc3)nc(N3CCOCC3)nc2OCCO)c1			IC50 (Endothelin-1 receptor [7]): 35 nM
COc1ccccc1Oc1c(NS(=O)(=O)c2ccc(C(C)C)cn2)nc(N2CCOCC2)nc1OCC#CCOC(=O)c1ccccn1	1	42	Kb (Endothelin-1 receptor [8]): 20 nM
COc1ccccc1Oc1c(NS(=O)(=O)c2ccc(C(C)(C)C)cc2)nc(N2CCOCC2)nc1OCCC(=O)Nc1ccccc1C(C)C			IC50 [1]: 0.86 nM; IC50 (Endothelin-1 receptor [9]): 63 nM
O=S(=O)(Nc1ncnc(OCCO)c1-c1ccc(Cl)cc1)c1ccc(Cl)cc1			IC50 (Endothelin-1 receptor [2]): 10000 nM; IC50 [10]: 8500 nM
COc1ccccc1Oc1c(NS(=O)(=O)c2ccc(C(C)C)cn2)nc(-c2ccncc2)nc1OC			IC50 (Endothelin-1 receptor [7]): 1.4 nM
COc1ccccc1Oc1c(OCCO)nc(-c2ncccn2)nc1N(C)S(=O)(=O)c1ccc(C(C)(C)C)cc1			IC50 (Endothelin-1 receptor [2]): > 100000 nM
CC#CCOc1nc(-c2ccnc(-c3nnn[nH]3)c2)nc(NS(=O)(=O)c2ccc(C(C)(C)C)cc2)c1Oc1ccccc1OC	33	29	

SMILES	IC50 (Endothelin-1 receptor [5]) [nM]	IC50 [6] [nM]	further results
COc1ccccc1Oc1c(NS(=O)(=O)c2ccc(C(C)(C)C)cc2)ncnc1OCCO			IC50 (Endothelin-1 receptor [2]): 1500 nM; Kb (Endothelin-1 receptor [8]): 955 nM
CCCc1nc(SC2CCC(CC(=O)O)CC2)c(C(=O)O)n1Cc1cc2c(cc1Cl)OCO2 (stereo not given)	1.1		
CSc1cnc(OCCOc2ncnc(NS(=O)(=O)c3ccc(C(C)(C)C)cc3)c2-c2cc3ccccc3s2)nc1			IC50 (Endothelin-1 receptor [9]): 0.026 nM
COc1ccccc1Oc1c(NS(=O)(=O)c2ccc(C(C)(C)C)cc2)nc(-c2ncccn2)[nH]c1=O			IC50 (Endothelin-1 receptor [2]): 133000 nM
COc1ccccc1Oc1c(NS(=O)(=O)CCc2cccs2)nc(N2CCOCC2)nc1OCCOC(=O)Nc1ccccn1	1	100	
CCCc1nc(C)ccc1O[C@@H](C(=O)NS(=O)(=O)c1ccc(C(C)C)cc1)c1ccc2c(c1)OCO2			Ki (Endothelin-1 receptor [5]): 0.11 nM; Ki [6]: 25 nM
COc1ccccc1Oc1c(NS(=O)(=O)c2ccc(C)cn2)nc(-c2ccnc(-c3noc(=S)[nH]3)c2)nc1OCC1CCCO1 (stereo not given)	6	288	
COc1ccccc1Oc1c(NS(=O)(=O)c2ccccc2)nc(-c2ncccn2)nc1OCCO			IC50 (Endothelin-1 receptor [2]): 1500 nM
COc1cnc(OCCOc2nc(-c3ccncc3)nc(NS(=O)(=O)NCc3ccccc3)c2-c2ccc(Cl)cc2)nc1	2	569	
COc1ccc(Cl)c(Oc2c(NS(C)(=O)=O)ncnc2OCCOc2ncc(S(C)(=O)=O)cn2)c1	3	542	
COc1ccccc1Cc1c(NS(=O)(=O)c2ccc(C(C)(C)C)cc2)ncnc1OCCO			IC50 (Endothelin-1 receptor [7]): 2000 nM
COc1ccccc1Oc1c(NS(=O)(=O)/C=C/c2ccccc2)nc(-c2ncccn2)nc1OCCO			IC50 (Endothelin-1 receptor [9]): 1.6 nM
O=S(=O)(Nc1ncnc(OCCO)c1-c1ccc(Cl)cc1)c1ccc(C(F)(F)F)cc1			IC50 (Endothelin-1 receptor [2]): 18000 nM; IC50 [10]: 2000 nM; Kb (Endothelin-1 receptor [8]): 1580 nM
COC(c1ccccc1)(c1ccccc1)[C@H](Oc1nc(C)cc(C)n1)C(=O)O [AMBRISENTAN]	1		
COc1ccccc1Oc1c(NS(=O)(=O)c2ccc(C(C)(C)C)cc2)nc(-c2ncccn2)nc1OCCO [BOSENTAN]			Kb (Endothelin-1 receptor [8]): 39.8 nM
COc1ccccc1Oc1c(NS(=O)(=O)c2ccc(C)cn2)nc(-c2ccnc(-c3nnn[nH]3)c2)nc1OCCO [CLAZOSENTAN]			IC50 (Endothelin-1 receptor [11]): 1.7 nM; IC50 [10]: 175 nM
COc1ccccc1Oc1c(NS(=O)(=O)c2ccc(C(C)C)cn2)nc(-c2ccnc(-c3nnn[nH]3)c2)nc1OCCO [TEZOSENTAN]			IC50 (Endothelin-1 receptor [11]): 18 nM; IC50 [10]: 21 nM
COc1nc(C)cnc1NS(=O)(=O)c1cccnc1-c1ccc(-c2nnco2)cc1 [ZIBOTENTAN]		> 100	

Further lines, with some results ahead:

IC50 (Endothelin-1 receptor [5]) [nM]	IC50 [6] [nM]	SMILES	further results
1.5	686	CCCNS(=O)(=O)Nc1ncnc(OCCOc2ncc(SC)cn2)c1-c1ccc(Cl)cc1	
9.4	315	CCCNS(=O)(=O)Nc1ncnc(OCCOc2ncc(SC)cn2)c1Oc1ccccc1OC	
0.3	63	CCCCNS(=O)(=O)Nc1ncnc(OCCOc2ncc(SC)cn2)c1-c1ccc(Br)cc1	
0.3		CCCCNS(=O)(=O)Nc1ncnc(OCCOc2ncc(SC)cn2)c1-c1ccc(Cl)cc1	
0.7		O=C(O)CCNS(=O)(=O)Nc1ncnc(OCCOc2ncc(Br)cn2)c1-c1ccc(Br)cc1	
0.1	82	CCCNS(=O)(=O)Nc1ncnc(OCCOc2ncc(SC)cn2)c1-c1ccc(Br)cc1	
1.4	90	CCCNS(=O)(=O)Nc1ncnc(OCCOc2ncc(SC)cn2)c1Oc1cccc(OC)c1	
0.5	210	CCCCNS(=O)(=O)Nc1ncnc(OCCOc2ncc(OC)cn2)c1-c1ccc(Br)cc1	
2.4	516	CCCNS(=O)(=O)Nc1ncnc(OCCOc2ncc(OC)cn2)c1-c1ccc(Br)cc1	
2	290	CNS(=O)(=O)Nc1ncnc(OCCOc2ncc(SC)cn2)c1-c1ccc(Br)cc1	
0.7		CCNS(=O)(=O)Nc1ncnc(OCCOc2ncc(SC)cn2)c1-c1ccc(Br)cc1	
3.3	555	CNS(=O)(=O)Nc1ncnc(OCCOc2ncc(SC)cn2)c1-c1ccc(Cl)cc1	
15.4	1430	CCCNS(=O)(=O)Nc1ncnc(OCCOc2ncc(Br)cn2)c1Oc1ccccc1OC	
2		Cc1ccc(-c2c(NS(=O)(=O)/C=C/c3ccccc3)ncnc2OCCOc2ncc(Br)cn2)cc1	
